Measurements published in patent US20090143279A1 (priority 2007, published 2009).
Like-named read-outs stand apart in the source and are kept apart here.

Key:
[1] = system: mtOXPHOS transcripts; assay type: cell-based, mouse; conditions: for mitoOX (composite Z-score): normalized score vs mock-treated (DMSO) wells
[2] = system: mitochondrial membrane potential; assay type: cell-based, mouse; conditions: for ΔΨm (composite Z-score): normalized score vs mock-treated (DMSO) wells
[3] = system: nuOXPHOS transcripts; assay type: cell-based, mouse; conditions: for nucOX (composite Z-score): normalized score vs mock-treated (DMSO) wells
[4] = system: C2C12 myotubes; conditions: for Viability (composite Z-score): normalized score vs mock-treated (DMSO) wells
[5] = system: reactive oxygen species; assay type: cell-based, mouse; conditions: for ROS (composite Z-score): normalized score vs mock-treated (DMSO) wells
[6] = system: OXPHOS gene expression; assay type: cell-based, mouse; conditions: for GE-HTS (composite Z-score): normalized score vs mock-treated (DMSO) wells
[7] = system: cytochrome c; assay type: cell-based, mouse; conditions: for cyt c (composite Z-score): normalized score vs mock-treated (DMSO) wells
[8] = system: cellular dehydrogenase activity; conditions: for MTT (composite Z-score): normalized score vs mock-treated (DMSO) wells
[9] = normalized composite Z-score vs mock-treated (DMSO) wells, Conc 20 μM
[10] = composite Z-score vs DMSO, Conc 20 μM
[11] = composite Z-score vs mock-treated (DMSO) wells, Conc 20 μM
[12] = 20 μM, composite Z-score vs DMSO

Compound `COc1ccc([C@H]2Oc3cc(OC)cc(OC)c3C[C@H]2O)cc1` [epiafzelechin trimethyl ether] has a mitoOX [1, 9] of 0.350, a ΔΨm [2, 9] of −0.324 and a nucOX [3, 9] of −0.134. The Viability [4, 9] was 0.557, the ROS [5, 9] was −0.190 and the GE-HTS [6, 9] was 0.019. It also gave a cyt c [7, 9] of 1.099 and an MTT [8, 9] of −0.884.
For `C[C@]12CCC3C(CC[C@H]4C[C@H](O)CC[C@]34C)C1CC[C@@H]2O` (stereo partly drawn) [epiandrostanediol], the mitoOX [1, 10] was 0.190, the ΔΨm [2, 10] was −0.156 and the nucOX [3, 10] was −0.203. For the same compound, the Viability [4, 10] was 1.143, the ROS [5, 10] was 0.113 and the GE-HTS [6, 10] was −0.069. It also gave a cyt c [7, 10] of −0.201 and an MTT [8, 10] of −0.207.
`Oc1cc(O)c2c(c1)O[C@H](c1ccc(O)c(O)c1)[C@H](O)C2` [epicatechin, reference compound] gave a mitoOX [1, 10] of 0.641, a mitoOX [1, 9] of −0.631 and a ΔΨm [2, 10] of −2.452. The ΔΨm [2, 9] was −1.802, the nucOX [3, 10] was 0.310 and the nucOX [3, 9] was −0.773. The Viability [4, 10] was −1.380, the Viability [4, 9] was 0.687 and the ROS [5, 10] was −0.465. It also gave an ROS [5, 9] of −0.199, a GE-HTS [6, 10] of 0.431 and a GE-HTS [6, 9] of −0.754. It also gave a cyt c [7] of 0.446, a cyt c [7, 10] of 0.110 and a cyt c [7, 9] of 0.850. It also gave an MTT [8, 10] of −1.915 and an MTT [8, 9] of −1.556.
For `O=C(Oc1cc(O)cc2c1C[C@@H](OC(=O)c1cc(O)c(O)c(O)c1)[C@@H](c1cc(O)c(O)c(O)c1)O2)c1cc(O)c(O)c(O)c1` [epigallocatechin 3,5-digallate], the mitoOX [1, 9] was −1.133, the ΔΨm [2, 9] was −2.135 and the nucOX [3, 9] was −1.625. The Viability [4, 9] was 0.969, the ROS [5, 9] was 0.118 and the GE-HTS [6, 9] was −1.581. It also gave a cyt c [7, 9] of 1.040 and an MTT [8, 9] of −1.667.
With `C/C1=C\CC(C)(C)/C=C/CC2(C)OC2CC1` (stereo not drawn) [epoxy (1,11)humulene] the “mitoOX (composite Z-score)” value ([1]; Conc 20 μM) was −1.021, the “ΔΨm (composite Z-score)” value ([2]; Conc 20 μM) was −0.509 and the “nucOX (composite Z-score)” value ([3]; Conc 20 μM) was −1.115. The “Viability (composite Z-score)” value ([4]; Conc 20 μM) was 1.157, the “ROS (composite Z-score)” value ([5]; Conc 20 μM) was −0.355 and the “GE-HTS (composite Z-score)” value ([6]; Conc 20 μM) was −1.172. For the same compound, the “cyt c (composite Z-score)” value ([7]; Conc 20 μM) was 0.979 and the “MTT (composite Z-score)” value ([8]; Conc 20 μM) was −0.802.
With `C[C@@H]1C(=O)O[C@H]2[C@H]1CC[C@@]1(C)C=CC(=O)[C@@]3(C)O[C@@]213` [epoxy (4,5alpha)-4,5-dihydrosantonin] the mitoOX [1, 11] was −0.901, the ΔΨm [2, 11] was 0.199 and the nucOX [3, 11] was −0.614. It also gave a Viability [4, 11] of 0.133, an ROS [5, 11] of −1.367 and a GE-HTS [6, 11] of −0.736. The cyt c [7, 11] was 0.552 and the MTT [8, 11] was 0.041.
With `CC(=O)O[C@@H]1CC2C(C)(C)C(=O)C3OC3[C@]2(C)C2CC[C@@]3(C)[C@H](c4ccoc4)OC(=O)C4OC43[C@@]21C` (stereo partly drawn) [epoxygedunin] the “mitoOX (composite Z-score)” value ([1]; Conc 20 μM) was −1.005, the “ΔΨm (composite Z-score)” value ([2]; Conc 20 μM) was 0.274 and the “nucOX (composite Z-score)” value ([3]; Conc 20 μM) was −1.130. For the same compound, the “Viability (composite Z-score)” value ([4]; Conc 20 μM) was 0.052, the “ROS (composite Z-score)” value ([5]; Conc 20 μM) was 0.409 and the “GE-HTS (composite Z-score)” value ([6]; Conc 20 μM) was −1.146. The “cyt c (composite Z-score)” value ([7]; Conc 20 μM) was 0.248 and the “MTT (composite Z-score)” value ([8]; Conc 20 μM) was −1.657.
`C[C@]12CC[C@H]3C(=CCc4cc(O)ccc43)[C@@H]1CCC2=O` [equilin] showed a mitoOX [1] of −0.676, a ΔΨm [2] of −0.408 and a nucOX [3] of −0.538. It also gave a Viability [4] of −0.882, an ROS [5] of 0.259 and a GE-HTS [6] of −0.626. The cyt c [7] was −0.069 and the MTT [8] was −2.270.
Compound `C=C1CC[C@H](O)C/C1=C/C=C1\CCC[C@]2(C)[C@@H]([C@H](C)/C=C/[C@H](C)C(C)C)CC[C@@H]12` [ergocalciferol] has a mitoOX [1, 12] of 0.357, a ΔΨm [2, 12] of −0.449 and a nucOX [3, 12] of 0.723. For the same compound, the Viability [4, 12] was 0.372, the ROS [5, 12] was 1.541 and the GE-HTS [6, 12] was 0.661. The cyt c [7, 12] was −0.118 and the MTT [8, 12] was −1.658.
In the case of `CC(C)[C@@H](C)C=C[C@@H](C)[C@H]1CC[C@H]2C3=CCC4CC(=O)CC[C@]4(C)[C@H]3CC[C@]12C` (stereo partly drawn) [ergosta-7,22-dien-3-one], the mitoOX [1, 10] is reported as −0.415, the ΔΨm [2, 10] is reported as −0.544 and the nucOX [3, 10] is reported as −0.764. It also gave a Viability [4, 10] of −0.892, an ROS [5, 10] of 0.912 and a GE-HTS [6, 10] of −0.708. The cyt c [7, 10] was 0.221 and the MTT [8, 10] was −2.474.
`CC(C)[C@@H](C)/C=C/[C@@H](C)[C@H]1CC[C@H]2C3=CC=C4C[C@@H](O)CC[C@]4(C)[C@H]3CC[C@]12C` [ergosterol] gave a mitoOX [1, 10] of −0.240, a ΔΨm [2, 10] of −0.489 and a nucOX [3, 10] of 0.420. For the same compound, the Viability [4, 10] was −0.792, the ROS [5, 10] was −0.198 and the GE-HTS [6, 10] was 0.231. For the same compound, the cyt c [7, 10] was 0.386 and the MTT [8, 10] was −1.864.
For `CS(=O)(=O)CCCCN=C=S` [erysolin], the “mitoOX (composite Z-score)” value ([1]; Conc 20 μM) was −0.862, the “ΔΨm (composite Z-score)” value ([2]; Conc 20 μM) was −0.785 and the “nucOX (composite Z-score)” value ([3]; Conc 20 μM) was −0.850. For the same compound, the “Viability (composite Z-score)” value ([4]; Conc 20 μM) was −4.103, the “ROS (composite Z-score)” value ([5]; Conc 20 μM) was −2.871 and the “GE-HTS (composite Z-score)” value ([6]; Conc 20 μM) was −0.913. The “cyt c (composite Z-score)” value ([7]; Conc 20 μM) was −1.868 and the “MTT (composite Z-score)” value ([8]; Conc 20 μM) was −3.551.
